Source: US20200188466A1, “COMPOSITIONS OF SCHISANDRA EXTRACTS AND METHODS THEREOF” (Reyoung Corporation, priority 2017, published 2020)
Where two headings read alike, the source gives them in different places.

Test: Plasma kinetic study of celastrol with and without Schisandrin A
Format: in vivo, Sprague Dawley rats
Settings: rats; for Cmax / Tmax / AUC(0-t) / AUC(0-inf) / MRT last / MRT inf / half-life: male, Sprague Dawley, rat, plasma, po, 1.8 mg/kg; for AUC(0-t): read-out: AUC0→t of celastrol; for AUC(0-inf): read-out: AUC0→∞ of celastrol; for MRT last: read-out: MRT0→t of celastrol; for MRT inf: read-out: MRT0→∞ of celastrol; for half-life: read-out: T1/2 of celastrol (converted)
Description: 42 Male Sprague Dawley rats (weight, 210-250 g) were maintained on a 12-hour light/dark cycle with free access to water and lab chow for 10-14 h prior to the experiment. Rats were randomly divided into 7 groups (n=6 each) and groups 2-7 received 0 mg/kg, 5.5 mg/kg, and 11.0 mg/kg, 22.0 mg/kg, 44.0 mg/kg and 88.0 mg/kg of Schisandrin A in 1% CMC-Na (300-800 cps) via oral administration, respectively. After 5 minutes, all the groups received 1.8 mg/kg of celastrol in a solution of 2% DMSO-98% sterile water via oral administration.
After celastrol treatment, blood samples were collected from individual rat at 0.25 h, 0.5 h, 1 h, 2 h, 4 h, 8 h, 12 h, 24 h, 36 h, and 48 h, respectively. Plasma was separated by centrifugation at 8000 rpm for 6 minutes at 4° C. and kept at −80° C. until analysis. Plasma homogenate was injected into LC-MS/MS for analysis.

[1] = Group1, celastrol 1.8 mg/kg oral, no Schisandrin A dose stated
[2] = Group2, Schisandrin A 0 mg/kg oral 5 min before celastrol 1.8 mg/kg oral
[3] = Group3, Schisandrin A 5.5 mg/kg oral 5 min before celastrol 1.8 mg/kg oral
[4] = Group4, Schisandrin A 11.0 mg/kg oral 5 min before celastrol 1.8 mg/kg oral
[5] = Group5, Schisandrin A 22.0 mg/kg oral 5 min before celastrol 1.8 mg/kg oral
[6] = Group6, Schisandrin A 44.0 mg/kg oral 5 min before celastrol 1.8 mg/kg oral
[7] = Group7, Schisandrin A 88.0 mg/kg oral 5 min before celastrol 1.8 mg/kg oral

Structure (SMILES): CC1=C(O)C(=O)C=C2C1=CC=C1[C@@]2(C)CC[C@@]2(C)[C@@H]3C[C@](C)(C(=O)O)CC[C@]3(C)CC[C@]12C [celastrol]
- T1/2 of celastrol [1]: 10.07 ± 2.48 h
- Cmax [1]: 7.03 ± 2.65 ng/mL
- Tmax [1]: 5.33 ± 2.07 h
- AUC(0-t) [1]: 0.103 ± 0.0282 µg·h/mL
- AUC(0-inf) [1]: 0.125 ± 0.0224 µg·h/mL
- MRT last [1]: 12.1 ± 1.74 h
- MRT inf [1]: 12.1 ± 3.49 h
- Cmax [2]: 5.94 ± 1.38 ng/mL
- Tmax [2]: 4 h
- AUC(0-t) [2]: 0.0932 ± 0.00274 µg·h/mL
- AUC(0-inf) [2]: 0.107 ± 0.0196 µg·h/mL
- MRT last [2]: 12 ± 1.82 h
- MRT inf [2]: 12 ± 2.33 h
- half-life [2]: 12.1 ± 1.77 h
- Cmax [3]: 7.13 ± 1.86 ng/mL
- Tmax [3]: 5.6 ± 3.58 h
- AUC(0-t) [3]: 0.117 ± 0.0278 µg·h/mL
- AUC(0-inf) [3]: 0.124 ± 0.0279 µg·h/mL
- MRT last [3]: 13.1 ± 2.27 h
- MRT inf [3]: 18.8 ± 8.57 h
- half-life [3]: 11.5 ± 5.18 h
- Cmax [4]: 7.08 ± 0.57 ng/mL
- Tmax [4]: 4 h
- AUC(0-t) [4]: 0.123 ± 0.0201 µg·h/mL
- AUC(0-inf) [4]: 0.133 ± 0.0201 µg·h/mL
- MRT last [4]: 12.9 ± 1.05 h
- MRT inf [4]: 15.7 ± 1.91 h
- half-life [4]: 9.1 ± 1.71 h
- Cmax [5]: 7.45 ± 2.72 ng/mL
- Tmax [5]: 9.33 ± 4.13 h
- AUC(0-t) [5]: 0.146 ± 0.0484 µg·h/mL
- AUC(0-inf) [5]: 0.121 ± 0.0317 µg·h/mL
- MRT last [5]: 14.2 ± 1.26 h
- MRT inf [5]: 16.9 ± 1.65 h
- half-life [5]: 10.3 ± 1.76 h
- Cmax [6]: 7.43 ± 3.47 ng/mL
- Tmax [6]: 10.7 ± 3.27 h
- AUC(0-t) [6]: 0.156 ± 0.0685 µg·h/mL
- AUC(0-inf) [6]: 0.198 ± 0.0944 µg·h/mL
- MRT last [6]: 14.9 ± 2.32 h
- MRT inf [6]: 33.1 ± 20.5 h
- half-life [6]: 23.8 ± 18 h
- Cmax [7]: 9.15 ± 6.48 ng/mL
- Tmax [7]: 6.67 ± 4.13 h
- AUC(0-t) [7]: 0.171 ± 0.0991 µg·h/mL
- AUC(0-inf) [7]: 0.186 ± 0.108 µg·h/mL
- MRT last [7]: 14.2 ± 1.18 h
- MRT inf [7]: 16.7 ± 1.68 h
- half-life [7]: 9.29 ± 1.97 h
